Data reported in patent publication US20100037353A1, “METHOD FOR IMPROVING ACTIVITY OF REACTIVE OXYGEN SPECIES SCAVENGING ENZYMES” (B Food Science Co., Ltd., priority 2007, published 2010).

What was measured:
[1] = test system: Cu/Zn-type SODs and SOD Cu Chaperone genes; assay: Transcriptomics with Arabidopsis thaliana DNA chip on root total RNA; type: in vivo; conditions: root of Arabidopsis thaliana grown on 2% sugar-containing MS medium with sugar alcohol at final concentration 0-2%
From the text: (§1) The DNA microarray is a partial sequence of DNA arranged and fixed in a high-density manner on a slide glass which is divided into from several tens of thousands to hundreds of thousands. By using this, an expressed gene can be detected. Arabidopsis thaliana and a rat were used as model organisms. These organisms each was cultivated or bred with an arbitrary test substance and then an mRNA extracted from the cells of the cultivated or bred organism was hybridized with a target which is changed into cDNA with a reverse transcriptase. By carrying out this procedure, gene information expressed in the model organism was detected comprehensively, this procedure is so-called a transcriptomics. Furthermore, separation and purification of the protein of the ROS-scavenging enzyme in the model organisms' cells and determination of the enzyme activity were carried out, whereby the results obtained from the transcriptomics were directly verified. RNA was extracted from a root of the Arabidopsis thaliana grown by a culture medium which contains a MS culture medium composition having sucrose at a concentration of 2% and a series of test substances at a final concentration of 0-2% each. This extracted specimen was supplied to the DNA microarray. In addition, RNA was extracted from the hepatocytes of SD rat grown with feed which contains a control feed having cornstarch as the main ingredient and a sugar alcohol as a series of test substances at a final concentration of 0-10%. This extracted specimen was supplied to the DNA microarray in the same way as described above. The protein of the ROS-scavenging enzyme in the model organism cells was separated and purified using AKT Aexplorer (FPLC). SOD activity measurements were carried out according to a standard protocol using SOD Assay Kit-WST. Total RNA was extracted from the root of Arabidopsis thaliana grown by a culture medium containing a 2% sugar-containing MS culture medium composition and a series of sugar alcohols at a final concentration of 0-2% each. Transcriptomics was conducted using a Arabidopsis thaliana DNA chip (the number of loading genes: 30,480 genes, the number of probe/gene: 6, probe length: 60mer) of GeneFrontier Corporation.

[2] = test system: Cu/Zn-type SODs and SOD Cu Chaperone genes; assay: Transcriptomics with rat DNA chip on hepatocyte total RNA of fed rats; type: in vivo; conditions: hepatocytes of SD rats fed thirty days with feed containing sugar alcohol at final concentration 0-10%
From the text: as §1, with “Kit-WST. Rats were fed for thirty days with a control diet containing 552.5 parts by weight of cornstarch, 250 parts by weight of casein, 35 parts by weight of mineral, 10 parts by weight of vitamin mixture, 2.5 parts by weight of choline bitartrate, 50 parts by weight of corn oil and 100 parts by weight of powdered cellulose, or feedstuffs containing the same composition as described in the control diet except that a portion of the powdered cellulose was replaced with the series of sugar alcohols so that the feedstuffs contain sugar alcohols at the final concentration of 0-10% each. The livers were taken out of the killed SD system rats and the total” for “Kit-WST. Total”, “the hepatocytes,” for “the root of Arabidopsis thaliana grown by a culture medium containing a 2% sugar-containing MS culture medium composition”, “and transcriptomics” for “and a series of sugar alcohols at a final concentration of 0-2% each. Transcriptomics”, “a rat” for “a Arabidopsis thaliana”, “genes: 21,205,” for “genes: 30,480 genes,”, “of probes per gene: 9,” for “of probe/gene: 6,”

[3] = test system: SOD; assay: SOD activity of Arabidopsis thaliana root extract (SOD Assay Kit-WST); type: in vivo; conditions: root extract of Arabidopsis thaliana grown with sugar alcohol 0-2% (Example 1)
From the text: RNA was extracted from a root of the Arabidopsis thaliana grown by a culture medium which contains a MS culture medium composition having sucrose at a concentration of 2% and a series of test substances at a final concentration of 0-2% each. This extracted specimen was supplied to the DNA microarray. In addition, RNA was extracted from the hepatocytes of SD rat grown with feed which contains a control feed having cornstarch as the main ingredient and a sugar alcohol as a series of test substances at a final concentration of 0-10%. This extracted specimen was supplied to the DNA microarray in the same way as described above. The protein of the ROS-scavenging enzyme in the model organism cells was separated and purified using AKT Aexplorer (FPLC). SOD activity measurements were carried out according to a standard protocol using SOD Assay Kit-WST. The roots of the Arabidopsis thaliana grown in Example 1 were crushed and water-extracted and then freeze-dried. Then each of the dried extract was dissolved in the buffer solution of 0.1M calcium phosphate to obtain a specimen. The SOD activity was determined according to a standard protocol using SOD Assay Kit-WST (Dojin Kagaku Kenkyu-Sho). […] In particular, the SOD activity of the erythritol-added group increased by 2-5 times.

[4] = test system: SOD; assay: SOD activity of rat liver extract (SOD Assay Kit-WST); type: in vivo, SD rat; conditions: liver extract of rats fed thirty days with sugar alcohol 0-10% in feed (Example 2)
From the text: RNA was extracted from a root of the Arabidopsis thaliana grown by a culture medium which contains a MS culture medium composition having sucrose at a concentration of 2% and a series of test substances at a final concentration of 0-2% each. This extracted specimen was supplied to the DNA microarray. In addition, RNA was extracted from the hepatocytes of SD rat grown with feed which contains a control feed having cornstarch as the main ingredient and a sugar alcohol as a series of test substances at a final concentration of 0-10%. This extracted specimen was supplied to the DNA microarray in the same way as described above. The protein of the ROS-scavenging enzyme in the model organism cells was separated and purified using AKT Aexplorer (FPLC). SOD activity measurements were carried out according to a standard protocol using SOD Assay Kit-WST. The livers of the rats fed in Example 2 each was crushed and then extracted with normal saline solution, and then freeze-dried. SOD activity was determined according to the same way as described in Example 3. […] In particular, the SOD activity of the erythritol-added group increased by 2 times.

Row | Structure (SMILES) | expression of Cu/Zn-type SODs and SOD Cu Chaperone genes [1] | expression of Cu/Zn-type SODs and SOD Cu Chaperone genes [2] | SOD activity compared to the control group [3] | SOD activity compared to the control group [4] | increase of SOD activity compared to the control group [3] | increase of SOD activity compared to the control group [4]
1 | OC[C@@H](O)[C@H](O)[C@@H](O)CO [xylitol] | up-regulated | up-regulated | promotion of the SOD activity was seen | promotion of the SOD activity was seen | – | –
2 | OC[C@@H](O)[C@@H](O)CO [erythritol] | up-regulated | up-regulated | promotion of the SOD activity was seen | promotion of the SOD activity was seen | 2-5 times | 2 times
3 | OC[C@@H](O)[C@@H](O)[C@H](O)[C@@H](O)CO [sorbitol] | up-regulated | up-regulated | promotion of the SOD activity was seen | promotion of the SOD activity was seen | – | –
4 | OC[C@@H](O)[C@@H](O)[C@H](O)[C@H](O)CO [mannitol] | up-regulated | up-regulated | promotion of the SOD activity was seen | promotion of the SOD activity was seen | – | –
